In patent US4792563A, “Insecticidal ethers” (Imperial Chemical Industries PLC, priority 1986, dated 1988):

How the values were obtained:
Format in all cases: in vivo
[1] = system: Tetranychus urticae (spider mites - adult); assay: insecticidal mortality test, contact, French bean leaf; settings: 72 h, 3 days, read-out: grading of mortality, TU
Method: (§1) The activity of the Product was determined using variety of insect pests. The Product was used in the form of liquid preparations containing 500 , 100 or 10 parts per million (ppm) by weight of the Product. The preparations were made by dissolving the Product in acetone and diluting the solutions with water containing b 0.01% by weight of a wetting agent sold under the trade name "LISSAPOL" NX until the liquid preparations contained the required concentration of the Product. "Lissapol" is a Registered Trade Mark.
(§2) The test procedure adopted with regard to each pest was basically the same and comprised supporting a number of the pests on a medium which was usually a host plant or a foodstuff on which the pests feed, and treating either or both the pests and the medium with the preparations. The mortality of the pests was then assessed at peroods usually varying from one to three days after the treatment.
(§3) The results of the tests are given in Table IV for each of the Products, at the rate in parts per million given in the second column, as a grading of mortality designated as A, B or C wherein A indicates 80-100% mortality or knockdown, B indicates 50-79% mortality or knockdown and C indicates less than 50% mortality or knockdown.
(§4) In Table IV the pest organism used is designated by a letter code and the pest species, the support medium or food, and the type and duration of test is given in Table III.

Myzus persicae (aphids) = assay: insecticidal mortality test, contact, Chinese cabbage leaf; settings: 72 h, 3 days, read-out: grading of mortality, MP
Method: as §1, §2, §3, §4

[2] = system: Nephotettix cincticeps (green leaf hopper - nymphs); assay: insecticidal mortality test, contact, rice plant; settings: 72 h, 3 days, read-out: grading of mortality, NC
Method: as §1, §2, §3, §4
NC Nephotettix cincticeps

[3] = system: Heliothis virescens (tobacco budworm - larvae); assay: whole plant or invertebrate; settings: in Gossypium hirsutum, 72 h, read-out: grading of mortality, HV
Method: as §1, §2, §3, §4
(tobacco budworm - larvae)

[4] = system: Diabrotica balteata (rootworm larvae); assay: insecticidal mortality test, residual, filter paper/maize seed; settings: 72 h, 3 days, read-out: grading of mortality, DB
Method: as §1, §2, §3, §4

[5] = system: Musca domestica (houseflies - adults); assay: insecticidal mortality test, contact, cotton wool/sugar; settings: 24 h, 1 day, read-out: grading of mortality, MD
Method: as §1, §2, §3, §4

[6] = system: Musca domestica (houseflies - adults); assay: knockdown test, cotton wool/sugar; settings: 4 hours, read-out: grading of knockdown, MD/KD
Method: as §1, §2
In the case of the species Musca domestica (housefly), additional tests to determine the knockdown effect of the compounds were performed.
as §3, §4

[7] = system: Spodoptera exigua (lesser army worm - larvae); assay: insecticidal mortality test, residual, cotton leaf; settings: 72 h, 3 days, read-out: grading of mortality, SP
Method: as §1, §2, §3, §4
(lesser army worm - larvae)

[8] = system: Blattella germanica (cockroach nymphs); assay: insecticidal mortality test, residual, plastic pot; settings: 72 h, 3 days, read-out: grading of mortality, BG
Method: as §1, §2, §3, §4

[9] = system: Niloparvata lugens (brown plant hopper - nymphs); assay: insecticidal mortality test, contact, rice plant; settings: 72 h, 3 days, read-out: grading of mortality, NL
Method: as §1, §2
as §3, with “knockdown. […]” for “knockdown.”

Row | SMILES | mortality at 500 ppm [1] | mortality at 500 ppm (Myzus persicae (aphids)) | mortality at 500 ppm [2] | mortality at 500 ppm [3] | mortality at 500 ppm [4] | mortality at 500 ppm [5] | pest or weed control at 500 ppm [6] | mortality at 500 ppm [7] | mortality at 500 ppm [8] | mortality at 500 ppm [9]
1 | CC(C)(COCc1ccc(F)c(Nc2ccccc2)c1)C(F)F [Compound 6, 1,1-Difluoro-2,2-dimethyl-3-(3-phenylamino-4-fluorobenzyloxy)propane] | 80 to 100% | 80 to 100% | 80 to 100% | 80 to 100% | 80 to 100% | < 50% | 50 to 79% | 80 to 100% | – | –
2 | CC(C)(COCc1ccc(F)c(Cc2ccccc2)c1)C(F)F [Compound 4, 1,1-Difluoro-2,2-dimethyl-3-(4-fluoro-3-benzylbenzyloxy)propane] | < 50% | < 50% | – | < 50% | 80 to 100% | 80 to 100% | < 50% | 50 to 79% | 50 to 79% | –
3 | CC(C)(COCc1cccc(Oc2ccccc2)c1)C(F)F [Compound 2, 1,1-Difluoro-2,2-dimethyl-3-(3-phenoxybenzyloxy)propane] | < 50% | < 50% | 80 to 100% | < 50% | 80 to 100% | 80 to 100% | 80 to 100% | < 50% | 80 to 100% | –
4 | CCC(C)(COCc1cccc(Oc2ccccc2)c1)C(F)F (racemic) [Compound 3, (RS)-1,1-Difluoro-2-ethyl-2-methyl-3(3-phenoxybenzyloxy)propane] | < 50% | < 50% | < 50% | < 50% | 80 to 100% | 50 to 79% | 50 to 79% | 80 to 100% | < 50% | –
5 | CC(C)(CF)COCc1ccc(F)c(Oc2ccccc2)c1 [Compound 7, 1-Fluoro-2,2-dimethyl-3-(4-fluoro-3-phenoxybenzyloxy)propane] | < 50% | < 50% | 80 to 100% | 80 to 100% | 80 to 100% | 80 to 100% | 80 to 100% | 80 to 100% | 80 to 100% | –
6 | CC(C)(COCc1ccc(F)c(Oc2ccccc2)c1)C(F)F [Compound 1, 1,1-difluoro-2,2-dimethyl-3-(4-fluoro-3-phenoxybenzyloxy)propane] | < 50% | < 50% | – | 80 to 100% | 80 to 100% | 80 to 100% | 80 to 100% | 80 to 100% | 80 to 100% | 80 to 100%
7 | Fc1ccc(COCC2(C(F)F)CCCC2)cc1Oc1ccccc1 [Compound 21, 1-Difluoromethyl-l-(4-fluoro-3-phenoxybenzyloxymethyl)cyclopentane] | < 50% | < 50% | 80 to 100% | 50 to 79% | 80 to 100% | < 50% | < 50% | < 50% | – | –
8 | CC(C)(COCc1cccc(Oc2ccccc2)n1)C(F)F [Compound 5, 1,1-Difluoro-2,2-dimethyl-3-[(6-phenoxypyrid-2-yl)methyloxy]propane] | 80 to 100% | 50 to 79% | – | < 50% | 80 to 100% | 80 to 100% | 80 to 100% | 80 to 100% | 80 to 100% | 80 to 100%
9 | CC(C)(CF)COCc1cccc(Oc2ccccc2)c1 [Compound 8, 1-fluoro-2,2-dimethyl-3-(3-phenoxybenzyloxy)propane] | < 50% | < 50% | 80 to 100% | 50 to 79% | 80 to 100% | 50 to 79% | < 50% | 80 to 100% | < 50% | –
